Measurements as given in PMC7224190, “Pharmacological inhibition of PRMT7 links arginine monomethylation to the cellular stress response” (Nature Communications, 2020).

Legend:
PRMT7 [1] = molecular target: T1, PRMT7 (Homo sapiens, UniProt Q9NVM4); assay: SPR kinetics (Biacore T200); also radiometric SPA IC50 […]; format: binding; set-up: Bio-PRMT7 (amino acids 1–692)
T1 sequence (Q9NVM4 1-692): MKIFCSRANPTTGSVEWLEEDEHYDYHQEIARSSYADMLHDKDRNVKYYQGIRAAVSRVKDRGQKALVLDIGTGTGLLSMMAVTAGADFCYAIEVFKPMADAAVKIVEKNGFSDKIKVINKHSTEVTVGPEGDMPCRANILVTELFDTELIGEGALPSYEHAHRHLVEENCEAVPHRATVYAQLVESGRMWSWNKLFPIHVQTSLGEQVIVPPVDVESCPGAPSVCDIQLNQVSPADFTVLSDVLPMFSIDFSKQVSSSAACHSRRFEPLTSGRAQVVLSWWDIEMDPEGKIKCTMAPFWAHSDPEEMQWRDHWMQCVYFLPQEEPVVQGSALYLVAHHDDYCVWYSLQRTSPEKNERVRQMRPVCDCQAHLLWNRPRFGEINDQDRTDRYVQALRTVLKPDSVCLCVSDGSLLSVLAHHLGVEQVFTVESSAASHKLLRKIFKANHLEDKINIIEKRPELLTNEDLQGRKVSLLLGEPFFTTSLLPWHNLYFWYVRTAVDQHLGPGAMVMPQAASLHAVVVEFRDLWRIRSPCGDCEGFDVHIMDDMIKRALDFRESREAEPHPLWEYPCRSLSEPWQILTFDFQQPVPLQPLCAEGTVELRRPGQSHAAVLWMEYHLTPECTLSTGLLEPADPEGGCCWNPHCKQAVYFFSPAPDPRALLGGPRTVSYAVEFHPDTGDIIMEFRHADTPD

PRMT7 [2] = molecular target: T1, PRMT7; assay: radiometric SPA methyltransferase assay (negative control compound, weak); format: biochemical

Nc1ncnc2c1ncn2[C@@H]1O[C@H](CSCCCCNCc2cccc(-c3ccc(Cl)cc3)c2)[C@@H](O)[C@H]1O [SGC8158]
Kd (PRMT7 [1]): 0.0064 ± 0.0012 µM

CC1(C)O[C@@H]2[C@H](O1)[C@@H](CSCCCCNCc1cccc(-c3ccc(Cl)cc3)c1)O[C@H]2n1cnc2c(N)ncnc21 [SGC8158N]
IC50 (PRMT7 [2]): 14 ± 2 µM
